# Reference: patent publication US12673039B2, “Methods of inducing autophagy using coumarin derivatives and related compounds” (Buck Institute for Research on Aging, priority 2019, dated 2026)
# Tests used:
# [1] = system: SH-SY5Y cells; test: Immunoblot of TFEB, cathepsin-D and SHP-1 in SH-SY5Y cells; assay type: cell-based, human; settings: 24 hours
# Protocol: FIG. 23, panels A-H: FXR modulation enhances HLH-30 expression in human neuronal SH-SY5Y cells. Panel A) Effects of AIC106 on human FXR activity was determined in a mammalian one-hybrid based kit assay by quantifying changes in the luciferase activity of FXR ligand (GW4064, GW) induced treatment. [N=3 independent experiments (mean±SD). ****p<0.0001, by one-way ANOVA with Tukey's multiple comparisons test]. Panel B) Protein expression of TFEB, cathepsin-D (CAT-D) and small heterodimer partner-1 (SHP-1) was determined by immunoblot in neuronal SH-SY5Y cells post-24 hours of treatment with AIC106 and DMSO-control. Panel C) AIC106 enhances autophagic flux in neuronal SH-SY5Y cells. Autophagic flux in DMSO-control and AIC106 treated neuronal cells was determined by quantifying levels of autophagosome specific LC3-II protein both in presence and absence of autophagy inhibitor bafliomycin A1 (Baf A, 10 nM). Panel D) Relative fold change in the band intensity of LC3-II protein, normalized to loading control actin. Values are relative to DMSO-control. [N=3 independent experiments (mean±SD). *p<0.05 and ****p<0.0001, by one-way ANOVA with Tukey's multiple comparisons test]. Panel E) Effects of AIC106 treatment for 72 hours on basal TAU and phosphorylated-TAU in differentiated human neuronal SH-SHY5Y and heterozygous TSC1(+/−) mutant SH-SY5Y neuronal cells were quantitated by immunoblotting following total protein extraction. Relative fold change in the band intensity compared to SH-SY5Y control treatment for (panel F) total TAU and (panel G) phosphorylated-TAU, normalized to loading control GAPDH. [N=3 independent experiments (mean±SD). *p<0.05 and **p<0.01, by one-way ANOVA with Sidak's multiple comparisons test]. Panel H) AIC106 treatment improves viability and health of differentiated SH-SY5Y-TSC1(+/−) neuronal cells. Images were taken post-96 hours after treatment of differentiated neuronal cells with AIC106.
# FIG. 30, panels A-B: FXR modulation enhances HLH-30 expression in human neuronal SH-SY5Y cell. Panel A) TFEB expression in SH-SY5Y cells was determined by immunoblot against TFEB in protein lysates collected after 24 hours of treatment with FXR agonist GW4064 and DMSO control. Panel B) Phosphorylated-TAU levels in SH-SY5Y-P301L-TAU cells was determined by immunoblot against (Ser202, Thr205) in protein lysates collected after 24 hours of treatment with known FXR antagonist Z-gugglsterone (z-GG), DY268 and DMSO control.
# [2] = system: UA44 worms; test: Dopaminergic neuronal loss in UA44 worms expressing human α-synuclein; assay type: in vivo, C. elegans
# Excerpt: Panel A) Dopaminergic neuronal loss in day-5 UA44 worms was quantified by scoring percentage of worms with intact 4-CEP neurons in AIC106 and DMSO-control treatment.
# [3] = system: TFEB; test: qRT-PCR of tfeb and its targets in N27 neuronal cells; assay type: cell-based, rat
# Protocol: (§1) FIG. 18, panels A-F: AIC106 (Autophagy Inducing Coumarin-106) induces transcription of TFEB and its targets in vitro in rat N27 neuronal cells and in vivo in C. elegans. Panel A) Relative fold change in TFEB promoter activity compared to DMSO-control was determined by quantifying luciferase activity in supernatants collected from rat N27 neuronal cells post-24 hour treatment with C1 (AIC106), D1 and D2. [n=3 independent experiments (mean±SEM), **p<0.01, by one-way ANOVA with Dunnett's multiple comparisons test]. Panel B) Chemical structure of AIC106 and its structural derivative D1 and D2. Panel C) Relative fold change in mRNA of tfeb and its targets compared to DMSO-control were quantified using qRT-PCR in N27 neuronal cells post-24 hour treatment with AIC106 [N=3 independent experiments (mean±SD). *p<0.05, **p<0.01 and ****p<0.0001, by two-way ANOVA with Sidak's multiple comparisons test]. Panel D) Changes in HLH-30 expression were measured by quantifying GFP intensity in an individual GFP-tagged HLH-30 strain (MAH235) post-24 hours treatment with AIC106 and DMSO-control. […] Panel E) HLH-30; GFP (MAH235) were monitored by fluorescence microscopy. Panel F) Relative fold change in mRNA of hlh-30 and its targets compared to DMSO-control were quantified using qRT-PCR in young adult wild type N2 worms post-24 hours treatment with AIC106. […]
# [4] = system: human TFEB promoter; test: TFEB promoter secreted-luciferase assay in rat N27 neuronal cells; assay type: cell-based; settings: 24 hour treatment, versus DMSO-control (FIG. 18, panel A)
# Protocol: as §1
structure (smiles),measurement,setting,value
"O=c1oc2c3c4c(cc2c2c1CCC2)CCCN4CCC3 [C1, 2,3,6,7,10,11-Hexahydro-1H,5H-cyclopenta(3,4)(1)benzopyrano(6,7,8-ij)quinolizin-12(9H)-one]",TFEB protein expression,[1],increased expression TFEB protein
same,cathepsin D (CATD) protein expression,[1],enhanced protein expression of TFEB target gene cathepsin D
same,small heterodimer partner-1 (SHP-1) expression,[1],"reduced expression of ligand-bound FXR target, small heterodimer partner-1"
same,neuronal loss,[2]; strain expressing human α-synuclein within dopaminergic neurons,prevented neuronal loss
same,neuroprotection,[2]; worms treated with hlh-30 RNAi,failed to show any neuroprotection
same,TFEB mRNA levels,[3]; 24 hour treatment,increased TFEB mRNA levels
same,downstream TFEB target genes expression,"[3]; 24 hour treatment (FIG. 18, panel C)",increased expression of downstream TFEB target genes
same,luciferase transcription (TFEB promoter activity),[4],6-7 fold
